Data published in patent US9701670B2, “Pyrazolyl-ureas as kinase inhibitors” (RESPIVERT LIMITED, priority 2013, dated 2017).

Assays:
[1] = tested on: Differentiated U937 cells; experiment: (l) Cell viability: MTT assay; type: cell-based, human; conditions: 1 μg/mL
Description: Differentiated U937 cells are pre-incubated with each test compound (final concentration 1 μg/mL or 10 μg/mL in 200 μL media indicated below) under two protocols: the first for 4 hr in 5% FCS RPMI1640 media and the second in 10% FCS RPMI1640 media for 24 h. The supernatant is replaced with new media (200 μL) and MTT stock solution (10 μL, 5 mg/mL) is added to each well. After incubation for 1 hr the media are removed, DMSO (200 μL) is added to each well and the plates are shaken lightly for 1 hr prior to reading the absorbance at 550 nm. The percentage loss of cell viability is calculated for each well relative to vehicle (0.5% DMSO) treatment. Consequently an apparent increase in cell viability for drug treatment relative to vehicle is tabulated as a negative percentage.

[2] = molecular target: p38 MAPKα isoform (MAPK14) (Homo sapiens (Human), UniProt Q16539); experiment: p38 MAPKα enzyme inhibition (FRET, Z-LYTE), Method 1; type: biochemical; conditions: Method 1 (Table 4a1)
Description: The enzyme inhibitory activities of compounds disclosed herein are determined by FRET using synthetic peptides labelled with both donor and acceptor fluorophores (Z-LYTE, Invitrogen Ltd., Paisley, UK).
The inhibitory activities of test compounds against the p38 MAPKα isoform (MAPK14: Invitrogen), are evaluated indirectly by determining the level of activation/phosphorylation of the down-stream molecule, MAPKAP-K2. The p38 MAPKα protein (80 ng/mL, 2.5 μL) is mixed with the test compound (2.5 μL of either 4 μg/mL, 0.4 μg/mL, 0.04 μg/mL or 0.004 μg/mL) for 2 hr at RT. […] The mixture is incubated for 1 hr at RT. Development reagent (protease, 5 μL) is added for 1 hr prior to detection in a fluorescence microplate reader (Varioskan® Flash, ThermoFisher Scientific).
In all cases, the site-specific protease cleaves non-phosphorylated peptide only and eliminates the FRET signal. Phosphorylation levels of each reaction are calculated using the ratio of coumarin emission (donor) over fluorescein emission (acceptor), for which high ratios indicate high phosphorylation and low ratios indicate low phosphorylation levels.

Chain of p38 MAPKα isoform (MAPK14) (Q16539 whole entry, canonical isoform): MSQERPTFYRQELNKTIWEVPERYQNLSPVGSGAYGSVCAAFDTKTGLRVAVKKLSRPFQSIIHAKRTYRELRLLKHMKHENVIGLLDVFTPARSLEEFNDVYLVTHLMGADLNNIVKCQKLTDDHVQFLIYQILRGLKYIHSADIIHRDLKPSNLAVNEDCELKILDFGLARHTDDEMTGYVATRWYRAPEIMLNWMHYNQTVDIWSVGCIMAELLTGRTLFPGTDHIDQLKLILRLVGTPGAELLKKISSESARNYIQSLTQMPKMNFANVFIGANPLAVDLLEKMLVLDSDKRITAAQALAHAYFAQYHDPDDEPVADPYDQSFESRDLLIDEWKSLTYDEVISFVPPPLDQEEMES

Structure (SMILES) | Cell viability at time point in d-U937 cells 4 h [1] | Cell viability at time point in d-U937 cells 24 h [1] | IC50 [2] [nM]
COc1ccc(-n2nc(C3CCOC3)cc2NC(=O)Nc2ccc(Oc3ccnc(Nc4cc(OC)cc(C(=O)NCCN5CCOCC5)c4)n3)c3ccccc23)cc1 (stereo not drawn) [Example 59, 3-methoxy-5-((4-((4-(3-(1-(4-methoxyphenyl)-3-(tetrahydrofuran-3-yl)-1H-pyrazol-5-yl)ureido)naphthalen-1-yl)oxy)pyrimidin-2-yl)amino)-N-(2-morpholinoethyl)benzamide] | −ve (−ve and +ve indicate that the value is below and above respectively, the no significant effect threshold, defined as 30% inhibition at 1 μg/mL at the time point indicated.) | −ve (−ve and +ve indicate that the value is below and above respectively, the no significant effect threshold, defined as 30% inhibition at 1 μg/mL at the time point indicated.) | 2
COc1cc(Nc2cc(Oc3ccc(NC(=O)Nc4cc(C(C)(C)C)nn4-c4ccc(C)cc4)c4ccccc34)ncn2)cc(C(=O)NCCN2CCOCC2)c1 [Example 72, 3-((6-((4-(3-(3-(tert-butyl)-1-(p-tolyl)-1H-pyrazol-5-yl)ureido)naphthalen-1-yl)oxy)pyrimidin-4-yl)amino)-5-methoxy-N-(2-morpholinoethyl)benzamide] | −ve (−ve and +ve indicate that the value is below and above respectively, the no significant effect threshold, defined as 30% inhibition at 1 μg/mL at the time point indicated.) | −ve (−ve and +ve indicate that the value is below and above respectively, the no significant effect threshold, defined as 30% inhibition at 1 μg/mL at the time point indicated.) | < 1
COc1cc(Nc2nccc(Oc3ccc(NC(=O)Nc4cc(C(C)C)nn4-c4ccc(OC)nc4)c4ccccc34)n2)cc(C(=O)NCCN2CCOCC2)c1 [Example 10, 3-((4-((4-(3-(3-Isopropyl-1-(6-methoxypyridin-3-yl)-1H-pyrazol-5-yl)ureido)naphthalen-1-yl)oxy)pyrimidin-2-yl)amino)-5-methoxy-N-(2-morpholinoethyl)benzamide] | −ve (−ve and +ve indicate that the value is below and above respectively, the no significant effect threshold, defined as 30% inhibition at 1 μg/mL at the time point indicated.) | −ve (−ve and +ve indicate that the value is below and above respectively, the no significant effect threshold, defined as 30% inhibition at 1 μg/mL at the time point indicated.) | 6
COc1ccc(Nc2nccc(Oc3ccc(NC(=O)Nc4cc(C(C)(C)C)nn4-c4ccc(C)cc4)c4ccccc34)n2)cc1C(=O)NCCN1CCOCC1 [Example 13, 5-((4-((4-(3-(3-(tert-Butyl)-1-(p-tolyl)-1H-pyrazol-5-yl)ureido)naphthalen-1-yl)oxy)pyrimidin-2-yl)amino)-2-methoxy-N-(2-morpholinoethyl)benzamide] | −ve (−ve and +ve indicate that the value is below and above respectively, the no significant effect threshold, defined as 30% inhibition at 1 μg/mL at the time point indicated.) | −ve (−ve and +ve indicate that the value is below and above respectively, the no significant effect threshold, defined as 30% inhibition at 1 μg/mL at the time point indicated.) | –
COc1cc(Nc2nccc(Oc3ccc(NC(=O)Nc4cc(C(C)(C)C)nn4-c4ccc(OC)nc4)c4ccccc34)n2)cc(C(=O)NCCN2CCOCC2)c1 [Example 57, 3-((4-((4-(3-(3-(tert-butyl)-1-(6-methoxypyridin-3-yl)-1H-pyrazol-5-yl)ureido)naphthalen-1-yl)oxy)pyrimidin-2-yl)amino)-5-methoxy-N-(2-morpholinoethyl)benzamide] | −ve (−ve and +ve indicate that the value is below and above respectively, the no significant effect threshold, defined as 30% inhibition at 1 μg/mL at the time point indicated.) | −ve (−ve and +ve indicate that the value is below and above respectively, the no significant effect threshold, defined as 30% inhibition at 1 μg/mL at the time point indicated.) | –
Cc1ccc(-n2nc(C(C)C)cc2NC(=O)Nc2ccc(Oc3ccnc(Nc4cc(C(=O)NCCN5CCOCC5)cc(C(F)(F)F)c4)n3)c3ccccc23)cc1 [Example 7, 3-((4-((4-(3-(3-isopropyl-1-(p-tolyl)-1H-pyrazol-5-yl)ureido)naphthalen-1-yl)oxy)pyrimidin-2-yl)amino)-N-(2-morpholinoethyl)-5-(trifluoromethyl)benzamide] | −ve (−ve and +ve indicate that the value is below and above respectively, the no significant effect threshold, defined as 30% inhibition at 1 μg/mL at the time point indicated.) | −ve (−ve and +ve indicate that the value is below and above respectively, the no significant effect threshold, defined as 30% inhibition at 1 μg/mL at the time point indicated.) | –
Cc1ccc(-n2nc(C(C)C)cc2NC(=O)Nc2ccc(Oc3ccnc(Nc4cccc(C(=O)NCCN5CCOCC5)c4)n3)c3ccccc23)cc1 [Example 19, 3-((4-((4-(3-(3-isopropyl-1-(p-tolyl)-1H-pyrazol-5-yl)ureido)naphthalen-1-yl)oxy)pyrimidin-2-yl)amino)-N-(2-morpholinoethyl)benzamide] | −ve (−ve and +ve indicate that the value is below and above respectively, the no significant effect threshold, defined as 30% inhibition at 1 μg/mL at the time point indicated.) | −ve (−ve and +ve indicate that the value is below and above respectively, the no significant effect threshold, defined as 30% inhibition at 1 μg/mL at the time point indicated.) | –
COc1ccc(-n2nc(C(C)(C)C)cc2NC(=O)Nc2ccc(Oc3cc(Nc4cc(OC)cc(C(=O)NCCN5CCOCC5)c4)ncn3)c(C)c2C)cc1 [Example 91, 3-((6-(4-(3-(3-(tert-Butyl)-1-(4-methoxyphenyl)-1H-pyrazol-5-yl)ureido)-2,3-dimethylphenoxy)pyrimidin-4-yl)amino)-5-methoxy-N-(2-morpholinoethyl)benzamide] | – | – | 9.6
COc1ccc(-n2nc(C(C)C)cc2NC(=O)Nc2ccc(Oc3ccnc(Nc4cc(OC)cc(C(=O)NCCN(C)C)c4)n3)c3ccccc23)cc1 [Example 6, N-(2-(Dimethylamino)ethyl)-3-((4-((4-(3-(3-isopropyl-1-(4-methoxyphenyl)-1H-pyrazol-5-yl)ureido)naphthalen-1-yl)oxy)pyrimidin-2-yl)amino)-5-methoxy benzamide] | −ve (−ve and +ve indicate that the value is below and above respectively, the no significant effect threshold, defined as 30% inhibition at 1 μg/mL at the time point indicated.) | −ve (−ve and +ve indicate that the value is below and above respectively, the no significant effect threshold, defined as 30% inhibition at 1 μg/mL at the time point indicated.) | –
COc1ccc(C(=O)NCCN(C)C)cc1Nc1nccc(Oc2ccc(NC(=O)Nc3cc(C(C)(C)C)nn3-c3ccc(C)cc3)c3ccccc23)n1 [Example 29, 3-((4-((4-(3-(3-(tert-butyl)-1-(p-tolyl)-1H-pyrazol-5-yl)ureido)naphthalen-1-yl)oxy)pyrimidin-2-yl)amino)-N-(2-(dimethylamino)ethyl)-4-methoxybenzamide] | −ve (−ve and +ve indicate that the value is below and above respectively, the no significant effect threshold, defined as 30% inhibition at 1 μg/mL at the time point indicated.) | −ve (−ve and +ve indicate that the value is below and above respectively, the no significant effect threshold, defined as 30% inhibition at 1 μg/mL at the time point indicated.) | –
COc1ccc(-n2nc(C(C)C)cc2NC(=O)Nc2ccc(Oc3ccnc(Nc4cc(C)cc(C(=O)NCCN5CCOCC5)c4)n3)c3ccccc23)cc1 [Example 45, 3-((4-((4-(3-(3-isopropyl-1-(4-methoxyphenyl)-1H-pyrazol-5-yl)ureido)naphthalen-1-yl)oxy)pyrimidin-2-yl)amino)-5-methyl-N-(2-morpholinoethyl)benzamide] | −ve (−ve and +ve indicate that the value is below and above respectively, the no significant effect threshold, defined as 30% inhibition at 1 μg/mL at the time point indicated.) | −ve (−ve and +ve indicate that the value is below and above respectively, the no significant effect threshold, defined as 30% inhibition at 1 μg/mL at the time point indicated.) | –
